Converted amounts (≈) assume the structure as drawn. Where two headings read alike, the source gives them in different places.
Legend:
[1] = tested on: HCT-116 colorectal cancer cell line; experiment: CCK-8 proliferation inhibition; type: cell-based; conditions: Homo sapiens, HCT-116, 72 h, read-out: HCT116 inhibition rate/%
Outline: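 Cells seeded at 2000 cells/well, cultured overnight at 37 °C, 5% CO2, then exposed to compound (DMSO; control 1‰ DMSO) for 72 h in McCoy's 5A with 10% newborn bovine serum. Viability read with 1:10 diluted CCK-8.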

[2] = tested on: methicillin-sensitive Staphylococcus epidermidis (MSSE); experiment: MIC, two-fold agar dilution (CLSI), clinical isolates; type: cell-based
Outline: (§1)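 Following the American Clinical and Laboratory Standards Institute procedure, agar two-fold dilution served to determine minimum inhibitory concentrations.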

[3] = tested on: methicillin-resistant Staphylococcus aureus (MRSA); experiment: as above; type: cell-based
Outline: as §1

[4] = tested on: Enterococcus faecalis (EFA); experiment: as above; type: cell-based
Outline: as §1

[5] = tested on: methicillin-resistant Staphylococcus epidermidis (MRSE); experiment: as above; type: cell-based
Outline: as §1

[6] = tested on: methicillin-sensitive Staphylococcus aureus (MSSA); experiment: as above; type: cell-based
Outline: as §1

[7] = tested on: Escherichia coli (including ESBLs, non-ESBLs); experiment: as above; type: cell-based
Outline: as §1

the test strains = experiment: MIC against the test strains (strain not given); type: cell-based; conditions: read-out: MIC (azole amide bioisosteres)
From the text: 1. The invention adopts the two-fold agar dilution method recommended by the operating procedure of antimicrobial susceptibility testing set by American Clinical and Laboratory Standards Institute (CLSI) to determine the Minimum Inhibitory Concentration (MIC) of the test samples against the tested strains.

[8] = tested on: methemoglobin in blood samples of three healthy volunteers; experiment: Toxicity on methemoglobin in vitro (whole blood with S9 and NADPH, absorbance at 630 nm); type: cell-based, human; conditions: 500 μM compound; whole blood + S9 + NADPH; 5 hours at 37° C.
Outline: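 Fresh EDTA whole blood from three healthy volunteers incubated 5 h at 37 °C with human liver S9 (2 mg/mL), NADPH-generating system and compound at 500 μM final. Lysed in 1% Triton X-100; MetHb % from 630 nm absorbance relative to ferricyanide-oxidized blood.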

[9] = strain printed MRSA 14-1 (second line of that name, r23, before MRSE 14-2)

Structure (SMILES)	MIC (anti-bacterial activity) ([2]; strain MSSE 14-1) [µg/mL]	MIC (anti-bacterial activity) ([2]; strain MSSE 14-2) [µg/mL]	MIC (anti-bacterial activity) ([2]; strain MSSE 14-3) [µg/mL]	MIC (anti-bacterial activity) ([2]; strain MSSE 14-4) [µg/mL]	MIC (anti-bacterial activity) ([3]; strain MRSA 14-1) [µg/mL]	MIC (anti-bacterial activity) ([3]; strain MRSA 14-2) [µg/mL]	MIC (anti-bacterial activity) ([3]; strain MRSA 14-4) [µg/mL]	MIC (anti-bacterial activity) ([3]; strain MRSA 14-5) [µg/mL]	MIC (anti-bacterial activity) [3, 9] [µg/mL]	MIC (anti-bacterial activity) ([4]; strain EFA 14-1) [µg/mL]	MIC (anti-bacterial activity) ([4]; strain EFA 14-2) [µg/mL]	MIC (anti-bacterial activity) ([4]; strain EFA 14-3) [µg/mL]	MIC (anti-bacterial activity) ([4]; strain EFA 14-5) [µg/mL]	MIC (anti-bacterial activity) ([5]; strain MRSE 14-2) [µg/mL]	MIC (anti-bacterial activity) ([5]; strain MRSE 14-3) [µg/mL]	MIC (anti-bacterial activity) ([5]; strain MRSE 14-4) [µg/mL]	MIC (anti-bacterial activity) ([6]; strain MSSA 14-1) [µg/mL]	MIC (anti-bacterial activity) ([6]; strain MSSA 14-2) [µg/mL]	MIC (anti-bacterial activity) ([6]; strain MSSA 14-3) [µg/mL]	MIC (anti-bacterial activity) ([6]; strain MSSA 14-4) [µg/mL]	further results
CCCC[C@H](CN(O)C=O)C(=O)N1CC2(CC2)C[C@H]1c1nc(-c2cccnc2)no1 [Example 11, N-hydroxy-N—((R)-2-((S)-6-(3-(pyridin-3-yl)-1,2,4-oxadiazol-5-yl)-5-azaspiro[2.4]heptane-5-carbonyl)hexyl)carboxamide]	0.125 (≈ 0.302 µM)	0.5 (≈ 1.21 µM)	0.125 (≈ 0.302 µM)	0.5 (≈ 1.21 µM)	0.5 (≈ 1.21 µM)	0.5 (≈ 1.21 µM)	0.5 (≈ 1.21 µM)	0.5 (≈ 1.21 µM)	0.25 (≈ 0.605 µM)	2 (≈ 4.84 µM)	2 (≈ 4.84 µM)	2 (≈ 4.84 µM)	2 (≈ 4.84 µM)	0.25 (≈ 0.605 µM)	0.125 (≈ 0.302 µM)	0.5 (≈ 1.21 µM)	0.5 (≈ 1.21 µM)	0.5 (≈ 1.21 µM)	0.5 (≈ 1.21 µM)	0.5 (≈ 1.21 µM)	inhibition at 30 µM [1]: 17%; MIC (anti-bacterial activity) ([7]; strain ECO+ 14-1): 1 µg/mL (≈ 2.42 µM); MIC (anti-bacterial activity) ([7]; strain ECO+ 14-2): 32 µg/mL (≈ 77.4 µM); MIC (anti-bacterial activity) ([7]; strain ECO− 14-1): 64 µg/mL (≈ 155 µM); MIC (anti-bacterial activity) ([7]; strain ECO− 14-2): 64 µg/mL (≈ 155 µM); MIC (the test strains): 0.5 to 2 µg/mL (≈ 1.21 to 4.84 µM); MetHb % (n = 3) [8]: 1.26 ± 0.07%
CCCC[C@H](CN(O)C=O)C(=O)N1CC2(CC2)C[C@H]1c1nnc(-c2ccccn2)o1 [Example 12, N-hydroxy-N—((R)-2-((S)-6-(5-(pyridin-2-yl)-1,3,4-oxadiazol-2-yl)-5-azaspiro[2.4]heptane-5-carbonyl)hexyl)carboxamide]	1 (≈ 2.42 µM)	1 (≈ 2.42 µM)	0.5 (≈ 1.21 µM)	1 (≈ 2.42 µM)	4 (≈ 9.67 µM)	4 (≈ 9.67 µM)	4 (≈ 9.67 µM)	2 (≈ 4.84 µM)	1 (≈ 2.42 µM)	4 (≈ 9.67 µM)	8 (≈ 19.3 µM)	8 (≈ 19.3 µM)	8 (≈ 19.3 µM)	0.5 (≈ 1.21 µM)	0.5 (≈ 1.21 µM)	4 (≈ 9.67 µM)	4 (≈ 9.67 µM)	2 (≈ 4.84 µM)	2 (≈ 4.84 µM)	2 (≈ 4.84 µM)	inhibition at 30 µM ([1]; concentration of 30 μM, 72 hours, CCK-8): 13%; MIC (anti-bacterial activity) ([7]; strain ECO+ 14-1): 0.5 µg/mL (≈ 1.21 µM); MIC (anti-bacterial activity) ([7]; strain ECO+ 14-2): 64 µg/mL (≈ 155 µM); MIC (anti-bacterial activity) ([7]; strain ECO− 14-1): 128 µg/mL (≈ 310 µM); MIC (anti-bacterial activity) ([7]; strain ECO− 14-2): 64 µg/mL (≈ 155 µM); MIC (the test strains): 0.5 to 2 µg/mL (≈ 1.21 to 4.84 µM); MetHb % (n = 3) [8]: 1.22 ± 0.02%
CCCC[C@H](CN(O)C=O)C(=O)N1CC2(CC2)C[C@H]1c1nnc2ccccn12 [Example 13, N—((R)-2-((S)-6-([1,2,4]triazole[4,3-a]pyridin-3-yl)-5-azaspiro[2.4]heptane-5-carbonyl)hexyl)-N-hydroxyamide]	0.25 (≈ 0.649 µM)	0.5 (≈ 1.3 µM)	0.5 (≈ 1.3 µM)	0.5 (≈ 1.3 µM)	1 (≈ 2.59 µM)	1 (≈ 2.59 µM)	1 (≈ 2.59 µM)	1 (≈ 2.59 µM)	0.5 (≈ 1.3 µM)	4 (≈ 10.4 µM)	8 (≈ 20.8 µM)	8 (≈ 20.8 µM)	8 (≈ 20.8 µM)	0.5 (≈ 1.3 µM)	0.25 (≈ 0.649 µM)	1 (≈ 2.59 µM)	1 (≈ 2.59 µM)	1 (≈ 2.59 µM)	1 (≈ 2.59 µM)	1 (≈ 2.59 µM)	inhibition at 30 µM [1]: 13%; MIC (anti-bacterial activity) ([7]; strain ECO+ 14-1): 2 µg/mL (≈ 5.19 µM); MIC (anti-bacterial activity) ([7]; strain ECO+ 14-2): 128 µg/mL (≈ 332 µM); MIC (anti-bacterial activity) ([7]; strain ECO− 14-1): 128 µg/mL (≈ 332 µM); MIC (anti-bacterial activity) ([7]; strain ECO− 14-2): 128 µg/mL (≈ 332 µM); MIC (the test strains): 0.5 to 2 µg/mL (≈ 1.3 to 5.19 µM); MetHb % (n = 3) [8]: 1.15 ± 0.06%

Source: patent US10738028B2, “Spiro three-membered ring, spiro five-membered ring peptide deformylase inhibitor and use thereof in antibacteria and anti-tumor” (priority 2016, dated 2020)
